{"source": "patent US20260209823A1", "about": "“KINASE/PHOSPHATASE SUBSTRATE ANALYSIS AND COMPOSITIONS USING SPECTRALLY ENCODED MICROBEADS” (CZ Biohub SF, LLC, priority 2022, published 2026)", "system": "Protein phosphatase 1 (PP1)", "assay": "Bead-based multiplexed phosphatase activity assay (pIMAGO detection on spectrally encoded beads)", "assay_type": "biochemical", "details": "beads incubated with PP1 versus buffer only", "experimental": "FIG. 2A-B: Overview and example data from bead-based multiplexed phosphatase activity assay. A) Experimental setup of phosphatase assay. Beads with indicated peptides are incubated with either PP1 (top) or Buffer only (bottom). The beads are washed and the phopsphorylation status of the peptides on the beads is detected using pImago. The beads are analyzed using a microscope capable of exciting beads with UV light and then identifying the spectral code embedded within each bead. B) Preliminary data showing the effect of PP1 phosphatase treatment on the phosphorylation status of the TSFFXGISPIEEEAH peptide (X indicates phosphorylated Serine).\nAn assay to measure dephosphorylation is performed by incubating the (phospho) substrate peptides, e.g., synthesized directly on the encoded beads, with a phosphatase of interest. […] These images can then be analyzed using open-source image analysis software, e.g., Harink et al., PLOS ONE 2019, to identify the code (and thus the peptide sequence) and amount of phosphorylation associated with each bead. The ratio of phosphorylation detected between a control reaction in the absence of the phosphatase and in the presence of the phosphatase allows determination of how efficiently different peptide sequences are dephosphorylated. […]", "note": "Non-standard residues stand in square brackets, D forms with d. No end group written: not given here. pS = N[C@@H](COP(=O)(O)O)C(=O)O", "data": [{"sequence": "TSFFXGISPIEEEAH (TSFF[pS]GISPIEEEAH)", "values": [{"measurement": "pIMAGO signal (phosphorylation status of bead-bound peptide) after PP1 treatment", "result": "loss of the signal"}]}]}
